These results are taken from BindingDB's records for doi:10.1016/j.bmcl.2014.08.029 (Rhône-Poulenc Rorer, 2014).

The nature of the test: Antagonist activity at CRTh2 receptor in human whole blood assessed as inhibition of PGD2-induced eosinophil shape change preincubated for 10 mins with PGD2 addition measured after 4 mins by forward scatter and side scatter analysis.
Broadly, the IC50 is the concentration needed to halve the response being measured. As for `CCN(Cc1cc(C(F)(F)F)ccc1-c1cc(CC(=O)O)n2ccc(C)nc12)C(=O)C1CC1`, the IC50 is 24 nM.

In the case of `Cc1ccc2c(CC(=O)O)cn(-c3ccc(C(F)(F)F)cc3CN(CCOc3ccccc3)C(=O)C3CC3)c2n1`, the IC50 turned out to be 60 nM.

For the compound `CCN(Cc1cc(C(F)(F)F)ccc1-n1cc(CC(=O)O)c2ccc(C(F)F)nc21)C(=O)C1CC1`, the IC50 turned out to be 8 nM.

Consider `CCN(Cc1cc(C(F)(F)F)ccc1-c1nn(CC(=O)O)c2ccc(Cl)c(F)c12)C(=O)C1CC1`, for which the IC50 is 18 nM.

Take `CCN(Cc1cc(C)ccc1-n1cc(CC(=O)O)c2ccc(C)nc21)C(=O)C1CC1`: the IC50 amounted to 13 nM.

As to `CCN(Cc1cc(C(F)(F)F)ccc1-c1nn(CC(=O)O)c2ccc(F)c(Cl)c12)C(=O)C1CC1`, the IC50 is 71 nM.

As to `CCN(Cc1cc(C(F)(F)F)ccc1-n1cc(CC(=O)O)c2ccc(C)nc21)C(=O)CC1CC1`, the IC50 is 29 nM.

In the case of `CCN(Cc1cc(C(F)(F)F)ccc1-n1cc(CC(=O)O)c2ccc(C)nc21)C(=O)NCc1ccccc1`, the half-maximal inhibitory concentration (IC50) came to 4.7 nM.

As to `CCN(Cc1cc(F)ccc1-c1cn(CC(=O)O)c2ccc(C(F)(F)F)cc12)C(=O)C1CC1`, the IC50 was determined as 17 nM.

Take `CCN(Cc1cc(C(F)(F)F)ccc1-c1nn(CC(=O)O)c2cccc(OC)c12)C(=O)C1CC1`: the IC50 was determined as 27 nM.

As to `CCN(Cc1cc(F)ccc1-n1cc(CC(=O)O)c2ccc(C)nc21)C(=O)C1CC1`, the IC50 stood at 6.4 nM.

In the case of `CCN(Cc1cc(C(F)(F)F)ccc1-n1cc(CC(=O)O)c2ccc(C)nc21)C(=O)C1CCC1`, the IC50 was determined as 8.5 nM.

Regarding `Cc1ccc2c(CC(=O)O)cn(-c3ccc(C(F)(F)F)cc3CN(CC3CC3)C(=O)C3CC3)c2n1`, the IC50 was 22 nM.

Regarding `CCN(Cc1cc(C(F)(F)F)ccc1-c1nn(CC(=O)O)c2cccc(C)c12)C(=O)C1CC1`, the IC50 was found to be 108 nM.

Turning to `CCN(Cc1cc(C(F)(F)F)ccc1-c1nn(CC(=O)O)c2cccc(F)c12)C(=O)C1CC1`, the IC50 was 23 nM.

On to `CCN(Cc1cc(OC(F)(F)F)ccc1-n1cc(CC(=O)O)c2ccc(C)nc21)C(=O)C1CC1`, for which the IC50 came to 6.7 nM.

Turning to `CCN(Cc1cc(Cl)ccc1-n1cc(CC(=O)O)c2ccc(C)nc21)C(=O)C1CC1`, the concentration for half-maximal inhibition (IC50) is 18 nM.

Take `CCN(Cc1cc(C(F)(F)F)ccc1-c1cn(CC(=O)O)c2ccc(C)nc12)C(=O)C1CC1`: the IC50 turned out to be 10 nM.

As to `CCN(Cc1cc(C(F)(F)F)ccc1-n1cc(CC(=O)O)c2ccc(C)nc21)C(=O)C1CC1`, the half-inhibitory concentration (IC50) is 7.8 nM.

In the case of `CCN(Cc1cc(C(F)(F)F)ccc1-n1cc(CC(=O)O)c2cccnc21)C(=O)C1CC1`, the IC50 came to 34 nM.

For `CCN(Cc1cc(C(F)(F)F)ccc1-n1cc(CC(=O)O)c2ccc(C)nc21)C(=O)COC`, the IC50 came out at 5 nM.

With `CCN(Cc1cc(C(F)(F)F)ccc1-c1nn(CC(=O)O)c2cccc(Cl)c12)C(=O)C1CC1`, the IC50 came out at 160 nM.

For the compound `CCN(Cc1cc(C(F)(F)F)ccc1-c1cc(CC(=O)O)c2ccc(C)nn12)C(=O)C1CC1`, the IC50 stood at 7.3 nM.

Turning to `CCN(Cc1cc(C(F)(F)F)ccc1-c1nn(CC(=O)O)c2cccc(C#N)c12)C(=O)C1CC1`, the IC50 stood at 103 nM.

Turning to `CCN(Cc1cc(C(F)(F)F)ccc1-c1nn(CC(=O)O)c2ccc(F)cc12)C(=O)C1CC1`, the concentration for half-maximal inhibition (IC50) was 34 nM.

Take `CCN(Cc1ccccc1-n1cc(CC(=O)O)c2ccc(C)nc21)C(=O)C1CC1`: the half-inhibitory concentration (IC50) was 9.5 nM.

`CCN(Cc1cc(C(F)(F)F)ccc1-c1nn(CC(=O)O)c2ccc(Cl)cc12)C(=O)C1CC1`: the concentration for half-maximal inhibition (IC50) is 23 nM.

In the case of `CCN(Cc1cc(C(F)(F)F)ccc1-c1cn(CC(=O)O)c2ccc(C(F)(F)F)nc12)C(=O)C1CC1`, the IC50 turned out to be 82 nM.

For the compound `CCN(Cc1ccccc1-n1cc(CC(=O)O)c2ccc(C(F)(F)F)cc21)C(=O)C1CC1`, the IC50 is 7.7 nM.

`CCN(Cc1cc(C(F)(F)F)ccc1-c1nn(CC(=O)O)c2ccc(C)cc12)C(=O)C1CC1`: the IC50 is 13 nM.

With `CCN(Cc1cc(F)ccc1-n1cc(CC(=O)O)c2cccnc21)C(=O)C1CC1`, the IC50 is 11 nM.

Take `CCN(Cc1cc(C(F)(F)F)ccc1-n1cc(CC(=O)O)c2ccc(C)nc21)C(=O)Cc1ccccc1`: the concentration for half-maximal inhibition (IC50) was determined as 25 nM.
